According to publication PMC4538832, “Structures of the T. brucei kRNA editing factor MRB1590 reveal unique RNA-binding pore motif contained within an ABC-ATPase fold” (Nucleic Acids Research, 2015):

Target: T1, MRB1590(10–668) (Trypanosoma brucei, UniProt Q57ZF2)
T1 construct: gene Tb03.30P12.70; residues 10-668 (full length 668, 72 kDa); homodimer, ATP site formed by both subunits
T1 sequence (Q57ZF2 10-668): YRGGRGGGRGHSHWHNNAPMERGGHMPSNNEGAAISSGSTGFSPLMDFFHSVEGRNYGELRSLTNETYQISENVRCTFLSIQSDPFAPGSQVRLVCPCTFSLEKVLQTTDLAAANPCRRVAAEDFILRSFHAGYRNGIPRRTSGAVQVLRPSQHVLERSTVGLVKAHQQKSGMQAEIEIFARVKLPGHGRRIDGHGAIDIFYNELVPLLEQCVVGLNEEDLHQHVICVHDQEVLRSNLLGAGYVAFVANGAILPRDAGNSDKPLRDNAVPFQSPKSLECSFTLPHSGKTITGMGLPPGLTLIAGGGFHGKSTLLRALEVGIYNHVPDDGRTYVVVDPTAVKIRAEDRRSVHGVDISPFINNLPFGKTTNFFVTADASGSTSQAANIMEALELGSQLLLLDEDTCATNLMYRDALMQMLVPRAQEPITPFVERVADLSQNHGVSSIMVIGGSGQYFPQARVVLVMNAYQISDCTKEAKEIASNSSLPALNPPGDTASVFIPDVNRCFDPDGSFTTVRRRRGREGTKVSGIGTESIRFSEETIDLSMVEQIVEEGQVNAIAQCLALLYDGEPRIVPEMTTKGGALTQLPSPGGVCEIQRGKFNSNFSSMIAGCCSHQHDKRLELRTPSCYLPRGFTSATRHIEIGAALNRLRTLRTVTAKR
Experiment: ITC
Format: binding

SMILES | Kd [nM]
Nc1ncnc2c1ncn2[C@@H]1O[C@H](COP(=O)(O)OP(=O)(O)NP(=O)(O)O)[C@@H](O)[C@H]1O [AMP-PNP] | 1270 ± 210
Nc1ncnc2c1ncn2[C@@H]1O[C@H](COP(=O)(O)OP(=O)(O)O)[C@@H](O)[C@H]1O [ADP] | 885 ± 49
